Experimental data from BindingDB's records for doi:10.1038/nchembio.137 (University of Texas Southwestern Medical Center, 2009).

Target: T1, Protein Wnt-2 (Mus musculus, UniProt P21552)
T1 sequence (P21552 whole entry): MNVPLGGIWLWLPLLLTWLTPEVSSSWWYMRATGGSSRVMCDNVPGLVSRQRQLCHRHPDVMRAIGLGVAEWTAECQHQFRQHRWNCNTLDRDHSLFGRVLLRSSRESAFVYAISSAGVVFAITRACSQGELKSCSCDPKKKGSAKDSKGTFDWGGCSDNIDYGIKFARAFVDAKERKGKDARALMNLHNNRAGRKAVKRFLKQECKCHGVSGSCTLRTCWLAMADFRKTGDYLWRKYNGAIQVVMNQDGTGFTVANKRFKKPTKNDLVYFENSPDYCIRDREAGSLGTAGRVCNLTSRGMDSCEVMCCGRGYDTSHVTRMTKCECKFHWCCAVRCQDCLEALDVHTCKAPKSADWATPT
Test: Wnt Inhibition Assay
Conditions: pH 7.4; 4 °C
From the text: Inhibition assay of Wnt response treated with exogenously supplied of Wnt protein ('exogenous Wnt' test)

IC50 | SMILES
40 nM | Cc1cccc2nc(Cn3c(=O)n(C[C@H]4CC[C@H](C(=O)NCc5ccccc5)CC4)c(=O)c4ccccc43)cc(=O)n12 [CID15995771]
27 nM | Cc1ccnc2c(NC(=O)c3ccc(-n4c(O)c5c(c4O)[C@H]4C=C[C@@H]5C4)cc3)cccc12 [CID25093486]
58 nM | O=C(Nc1cccc2cccnc12)c1ccc(-n2c(O)c3c(c2O)[C@H]2C=C[C@@H]3C2)cc1
25 nM | N#Cc1ccccc1Cn1c(=O)n(C[C@H]2CC[C@H](C(=O)NCc3ccccc3)CC2)c(=O)c2ccccc21 [CID15993586]
